Assay results published in BindingDB's records for doi:10.1021/jm0496077 (University of Southern California, 2005).
pIC50: −log10 of the molar value.

How the values were obtained:
[1] = molecular target: Integrase (Human immunodeficiency virus 1); assay: Inhibitory concentration against human immuno deficiency virus type 1 integrase (Strand Transfer)
[2] = molecular target: Integrase (Human immunodeficiency virus 1); assay: Inhibitory concentration against human immuno deficiency virus type 1 integrase (3'-processing)

Structure (SMILES) | pIC50 [1] | pIC50 [2]
COc1cc(C(=O)Nc2ccc(O)c(C(=O)O)c2)cc(OC)c1OC [2-Hydroxy-5-(3,4,5-trimethoxy-benzoylamino)-benzoic acid] | < 4.00 | < 4.00
O=C(CN1C(=O)/C(=C/c2ccccc2Cl)SC1=S)Nc1ccc([N+](=O)[O-])cc1O [2-{5-[1-(2-Chloro-phenyl)-meth-(Z)-ylidene]-4-oxo-2-thioxo-thiazolidin-3-yl}-N-(2-hydroxy-4-nitro-phenyl)-acetamide] | < 4.00 | < 4.00
O=C(CN1C(=O)/C(=C/c2ccccc2Cl)SC1=S)Nc1cc([N+](=O)[O-])ccc1O [2-{5-[1-(2-Chloro-phenyl)-meth-(Z)-ylidene]-4-oxo-2-thioxo-thiazolidin-3-yl}-N-(2-hydroxy-5-nitro-phenyl)-acetamide] | 4.74 | 4.70
O=C1/C(=C/c2c(NCCO)nc3ccccn3c2=O)SC(=S)N1Cc1ccco1 [3-[3-Furan-2-ylmethyl-4-oxo-2-thioxo-thiazolidin-(5E)-ylidenemethyl]-2-(2-hydroxy-ethylamino)-pyrido[1,2-a]pyrimidin-4-one] | 4.00 | < 4.00
Cc1ccc(/C=C2\SC(=S)N(CCC(=O)Nc3ccc(S(=O)(=O)Nc4nccs4)cc3)C2=O)cc1 [3-{4-Oxo-2-thioxo-5-[1-p-tolyl-meth-(Z)-ylidene]-thiazolidin-3-yl}-N-[4-(thiazol-2-ylsulfamoyl)-phenyl]-propionamide] | 4.36 | 4.08
O=C(CCN1C(=O)/C(=C/c2ccccc2Cl)SC1=S)Nc1ccc([N+](=O)[O-])cc1 [3-{5-[1-(2-Chloro-phenyl)-meth-(Z)-ylidene]-4-oxo-2-thioxo-thiazolidin-3-yl}-N-(4-nitro-phenyl)-propionamide] | < 4.00 | < 4.00
CCOC(=O)N1CCN(C(=O)CCN2C(=O)/C(=C/c3ccc(OC)c(OC)c3)SC2=S)CC1 [4-(3-{5-[1-(3,4-Dimethoxy-phenyl)-meth-(Z)-ylidene]-4-oxo-2-thioxo-thiazolidin-3-yl}-propionyl)-piperazine-1-carboxylic acid ethyl ester] | < 4.00 | < 4.00
O=C(CN1C(=O)/C(=C2\SC(=S)N(CC(=O)Nc3ccc(C(=O)O)cc3)C2=O)SC1=S)Nc1ccc(C(=O)O)cc1 [4-{5-[3-(4-carboxyphenylcarbamoylmethyl)-4-oxo-2-thioxo-1,3-thiazolan-5-yliden]-4-oxo-2-thioxo-1,3-thiazolan-3-ylmethylcarboxamido}benzoic acid] | 4.12 | 4.23
O=C(NC(=S)Nc1ccc(O)c(C(=O)O)c1)c1ccccc1 [5-(3-Benzoyl-thioureido)-2-hydroxy-benzoic acid] | < 4.00 | < 4.00
O=C1/C(=C/c2ccc(O)cc2O)SC(=S)N1c1ccccc1 [5-[1-(2,4-Dihydroxy-phenyl)-meth-(Z)-ylidene]-3-phenyl-2-thioxo-thiazolidin-4-one] | < 4.00 | < 4.00
O=C(O)c1ccc(S(=O)(=O)c2ccc3c(c2)C(=O)N(c2ccc(O)c(C(=O)O)c2)C3=O)cc1 [5-[5-(4-Carboxy-benzenesulfonyl)-1,3-dioxo-1,3-dihydro-isoindol-2-yl]-2-hydroxy-benzoic acid] | 4.36 | 4.18
Cc1ccc2nc(C(C#N)=Cc3ccc(-c4ccc(O)c(C(=O)O)c4)o3)[nH]c2c1 [5-{5-[(E)-2-Cyano-2-(5-methyl-1H-benzoimidazol-2-yl)-vinyl]-furan-2-yl}-2-hydroxy-benzoic acid] | 5.10 | 4.80
Cc1ccc(/C=C2\SC(=S)N(CC(=O)Nc3ccc([N+](=O)[O-])cc3O)C2=O)cc1 [N-(2-Hydroxy-4-nitro-phenyl)-2-{4-oxo-2-thioxo-5-[1-p-tolyl-meth-(Z)-ylidene]-thiazolidin-3-yl}-acetamide] | < 4.00 | < 4.00
Cc1ccc(/C=C2\SC(=S)N(CC(=O)Nc3cc([N+](=O)[O-])ccc3O)C2=O)cc1 [N-(2-Hydroxy-5-nitro-phenyl)-2-{4-oxo-2-thioxo-5-[1-p-tolyl-meth-(Z)-ylidene]-thiazolidin-3-yl}-acetamide] | 4.10 | 4.08
O=C(CN1C(=O)/C(=C2\SC(=S)N(CC(=O)Nc3ccc(O)cc3)C2=O)SC1=S)Nc1ccc(O)cc1 [N-(4-Hydroxy-phenyl)-2-{(E)-3''-[(4-hydroxy-phenylcarbamoyl)-methyl]-4,4''-dioxo-2,2''-dithioxo-[5,5'']bithiazolidinyliden-3-yl}-acetamide] | 4.16 | 4.23
COc1ccccc1/C=C1/SC(=S)N(CCC(=O)Nc2ccc(O)cc2)C1=O [N-(4-Hydroxy-phenyl)-3-{5-[1-(2-methoxy-phenyl)-meth-(E)-ylidene]-4-oxo-2-thioxo-thiazolidin-3-yl}-propionamide] | 4.00 | 4.00
COc1cc(/C=C2\SC(=S)N(CC(=O)Nc3cc(Cl)ccc3O)C2=O)cc(OC)c1OC [N-(5-Chloro-2-hydroxy-phenyl)-2-{4-oxo-2-thioxo-5-[1-(3,4,5-trimethoxy-phenyl)-meth-(Z)-ylidene]-thiazolidin-3-yl}-acetamide] | 4.77 | 4.49
O=C(CCN1C(=O)/C(=C/c2cccs2)SC1=S)Nc1ccc2ccccc2c1 [N-Naphthalen-2-yl-3-{4-oxo-5-[1-thiophen-2-yl-meth-(Z)-ylidene]-2-thioxo-thiazolidin-3-yl}-propionamide] | < 4.00 | < 4.00
CCOc1cc(C=C2SC(=S)N(NC(=O)c3ccccc3O)C2=O)ccc1O [N-{5-[1-(3-Ethoxy-4-hydroxy-phenyl)-meth-(Z)-ylidene]-4-oxo-2-thioxo-thiazolidin-3-yl}-2-hydroxy-benzamide] | 4.42 | 4.15
O=C(NN1C(=O)C(=Cc2ccc(Br)cc2)SC1=S)c1ccccc1O [N-{5-[1-(4-Bromo-phenyl)-meth-(Z)-ylidene]-4-oxo-2-thioxo-thiazolidin-3-yl}-2-hydroxy-benzamide] | 4.57 | 4.28

Next, values leading:

pIC50 [1] | pIC50 [2] | Structure (SMILES)
< 4.00 | < 4.00 | COc1ccc(/C=C2\SC(=S)N(CCC(=O)Nc3cccc(C(=O)O)c3)C2=O)cc1
4.07 | 4.01 | COc1cc(/C=C2/SC(=S)N(CCC(=O)Nc3ccc(C(=O)O)cc3)C2=O)cc(OC)c1OC
< 4.00 | 4.03 | CCOc1ccc(/C=C2\SC(=S)N(CCC(=O)Nc3cccc(C(=O)O)c3)C2=O)cc1
4.42 | 4.42 | O=C(CCN1C(=O)/C(=C/c2cccs2)SC1=S)Nc1ccc(O)c(C(=O)O)c1 [2-Hydroxy-5-(3-{4-oxo-5-[1-thiophen-2-yl-meth-(Z)-ylidene]-2-thioxo-thiazolidin-3-yl}-propionylamino)-benzoic acid]
4.64 | 4.44 | CC(/C=C1\SC(=S)N(CCC(=O)Nc2ccc(O)c(C(=O)O)c2)C1=O)=C\c1ccccc1 [2-Hydroxy-5-(3-{5-[(E)-2-methyl-3-phenyl-prop-2-en-(Z)-ylidene]-4-oxo-2-thioxo-thiazolidin-3-yl}-propionylamino)-benzoic acid]
4.46 | 4.36 | O=C(CCCN1C(=O)/C(=C\c2cccs2)SC1=S)Nc1ccc(O)c(C(=O)O)c1 [2-Hydroxy-5-(4-{4-oxo-5-[1-thiophen-2-yl-meth-(Z)-ylidene]-2-thioxo-thiazolidin-3-yl}-butyrylamino)-benzoic acid]
< 4.00 | 4.01 | Cc1ccc(/C=C2/SC(=S)N(CC(=O)Nc3cccc(C(=O)O)c3)C2=O)cc1 [3-(2-{4-Oxo-2-thioxo-5-[1-p-tolyl-meth-(Z)-ylidene]-thiazolidin-3-yl}-acetylamino)-benzoic acid]
< 4.00 | < 4.00 | CCc1ccc(/C=C2/SC(=S)N(CC(=O)Nc3cccc(C(=O)O)c3)C2=O)cc1 [3-(2-{5-[1-(4-Ethyl-phenyl)-meth-(Z)-ylidene]-4-oxo-2-thioxo-thiazolidin-3-yl}-acetylamino)-benzoic acid]
< 4.00 | 4.00 | Cc1ccc(/C=C2\SC(=S)N(CCC(=O)Nc3cccc(C(=O)O)c3)C2=O)cc1 [3-(3-{4-Oxo-2-thioxo-5-[1-p-tolyl-meth-(Z)-ylidene]-thiazolidin-3-yl}-propionylamino)-benzoic acid]
4.77 | 4.21 | COc1ccc(/C=C2/SC(=S)N(CCC(=O)Nc3ccc(C(=O)O)c(O)c3)C2=O)cc1OC [4-(3-{5-[1-(3,4-Dimethoxy-phenyl)-meth-(Z)-ylidene]-4-oxo-2-thioxo-thiazolidin-3-yl}-propionylamino)-2-hydroxy-benzoic acid]
4.64 | 4.48 | O=C(CCN1C(=O)/C(=C/c2ccc3c(c2)OCO3)SC1=S)Nc1ccc(C(=O)O)c(O)c1 [4-(3-{5-[1-Benzo[1,3]dioxol-5-yl-meth-(Z)-ylidene]-4-oxo-2-thioxo-thiazolidin-3-yl}-propionylamino)-2-hydroxy-benzoic acid]
4.96 | 4.82 | CCc1ccc(/C=C2\SC(=S)N(CCC(=O)Nc3ccc(O)c(C(=O)O)c3)C2=O)cc1 [5-(3-{5-[1-(4-Ethyl-phenyl)-meth-(Z)-ylidene]-4-oxo-2-thioxo-thiazolidin-3-yl}-propionylamino)-2-hydroxy-benzoic acid]
4.77 | 4.82 | O=C(CCN1C(=O)/C(=C/c2ccc3c(c2)OCO3)SC1=S)Nc1ccc(O)c(C(=O)O)c1 [5-(3-{5-[1-Benzo[1,3]dioxol-5-yl-meth-(Z)-ylidene]-4-oxo-2-thioxo-thiazolidin-3-yl}-propionylamino)-2-hydroxy-benzoic acid]
< 4.00 | < 4.00 | O=C(CCN1C(=O)/C(=C/c2cccs2)SC1=S)Nc1cccc(O)c1 [N-(3-Hydroxy-phenyl)-3-{4-oxo-5-[1-thiophen-2-yl-meth-(Z)-ylidene]-2-thioxo-thiazolidin-3-yl}-propionamide]
4.03 | 4.01 | O=C(CCN1C(=O)/C(=C/c2ccc3c(c2)OCO3)SC1=S)Nc1ccc2c(c1)OCO2 [N-Benzo[1,3]dioxol-5-yl-3-{5-[1-benzo[1,3]dioxol-5-yl-meth-(Z)-ylidene]-4-oxo-2-thioxo-thiazolidin-3-yl}-propionamide]
